Results as given in US11452717B2, “Small molecule activators of nicotinamide phosphoribosyltransferase (NAMPT) and uses thereof” (Sanford Burnham Prebys Medical Discovery Institute, priority 2017, dated 2022).
pEC50: −log10 of the molar value.

molecular target: NAMPT enzyme (Homo sapiens (Human), UniProt P43490); test: Enzyme Assay and NMN Detection (NAMPT reaction, fluorescence detection of NMN); type: biochemical; details: Table B-1; NAMPT activation, NMN formation
Procedure, shortened: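 Reaction in 50 mM HEPES pH 7.5, 5 mM MgCl2, 0.1% Prionex, 0.005% Tween 20, 1 mM TCEP at room temperature, with 16 nM NAMPT, 120 uM ATP, 5 uM nicotinamide, 6.25 uM PRPP, 0.04 U/ml pyrophosphatase for 2 h. Stopped with acetophenone/KOH then formic acid; NMN quantified by fluorescence (ex380/em460) against calibration curve.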

Sequence of NAMPT enzyme (P43490 whole entry, species assumed): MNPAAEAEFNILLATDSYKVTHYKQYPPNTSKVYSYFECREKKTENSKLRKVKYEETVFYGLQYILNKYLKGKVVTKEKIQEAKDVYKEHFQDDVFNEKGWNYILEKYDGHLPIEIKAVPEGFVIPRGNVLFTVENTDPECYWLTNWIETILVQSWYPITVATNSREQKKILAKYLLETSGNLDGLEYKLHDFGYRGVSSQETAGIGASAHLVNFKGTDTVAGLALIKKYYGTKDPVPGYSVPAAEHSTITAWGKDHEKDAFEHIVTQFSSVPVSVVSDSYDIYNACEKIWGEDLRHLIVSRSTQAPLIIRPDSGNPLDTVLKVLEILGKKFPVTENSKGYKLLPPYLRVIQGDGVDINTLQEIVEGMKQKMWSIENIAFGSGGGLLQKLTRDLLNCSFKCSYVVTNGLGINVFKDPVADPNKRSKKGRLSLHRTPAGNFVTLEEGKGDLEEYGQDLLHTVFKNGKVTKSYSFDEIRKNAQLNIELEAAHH

Compared with O=C(NCc1cn[nH]c1)Nc1ccc(S(=O)(=O)Nc2ccccn2)cc1 [4-[3-(1H-Pyrazol-4-ylmethyl)-ureido]-N-pyridin-2-yl-benzenesulfonamide], CCOC(=O)c1ccc(NC(=O)NCc2cn[nH]c2)cc1 [Ethyl 4-(3-((1H-pyrazol-4-yl)methyl)ureido)benzoate] is higher in pEC50: 5.30 to 5.70 for the first, 5.70 to 7.00 for the second.

CCOC(=O)c1ccc(NC(=O)NCc2cn(Cc3ccc(OC)cc3)nn2)cc1 [Ethyl 4-(3-((1-(4-methoxybenzyl)-1H-1,2,3-triazol-4-yl)methyl)ureido)benzoate] and CCOC(=O)c1ccc(NC(=O)NCc2cn(C)cn2)cc1 [Ethyl 4-(3-((1-methyl-1H-imidazol-4-yl)methyl)ureido)benzoate] cannot be ordered by pEC50: less than 4.70 for the first, less than 4.70 for the second.

CCOC(=O)c1ccc(NC(=O)NCc2cncn2C)cc1 [Ethyl 4-(3-((1-methyl-1H-imidazol-5-yl)methyl)ureido)benzoate] and CCOC(=O)c1ccc(NC(=O)NCc2ccnn2C)cc1 [Ethyl 4-(3-((1-methyl-1H-pyrazol-5-yl)methyl)ureido)benzoate] cannot be ordered by pEC50: less than 4.70 for the first, less than 4.70 for the second.

CCOC(=O)c1ccc(NC(=O)NCc2cnn(C)c2)cc1 [Ethyl 4-(3-((1-methyl-1H-pyrazol-4-yl)methyl)ureido)benzoate] and CCOC(=O)c1ccc(NC(=O)NCc2c[nH]cn2)cc1 [Ethyl 4-(3-((1H-imidazol-4-yl)methyl)ureido)benzoate] cannot be ordered by pEC50: less than 4.70 for the first, less than 4.70 for the second.

CCOC(=O)c1ccc(NC(=O)NCc2c[nH]nn2)cc1 [Ethyl 4-(3-((1H-1,2,3-triazol-4-yl)methyl)ureido)benzoate] and CCOC(=O)c1ccc(NC(=O)NCc2cc[nH]n2)cc1 [Ethyl 4-(3-((1H-pyrazol-3-yl)methyl)ureido)benzoate] cannot be ordered by pEC50: less than 4.70 for the first, less than 4.70 for the second.

CCOC(=O)c1ccc(NC(=O)NCc2cnc[nH]2)cc1 [Ethyl 4-(3-((1H-imidazol-5-yl)methyl)ureido)benzoate] and CCOC(=O)c1ccc(NC(=O)NCc2cocn2)cc1 [Ethyl 4-(3-(oxazol-4-ylmethyl)ureido)benzoate] cannot be ordered by pEC50: less than 4.70 for the first, less than 4.70 for the second.

CCOC(=O)c1ccc(NC(=O)NCc2c(C)noc2C)cc1 [Ethyl 4-(3-((3,5-dimethylisoxazol-4-yl)methyl)ureido)benzoate] and CCOC(=O)c1ccc(NC(=O)NCc2c[nH]nc2C)cc1 [Ethyl 4-(3-((3-methyl-1H-pyrazol-4-yl)methyl)ureido)benzoate] cannot be ordered by pEC50: less than 4.70 for the first, less than 4.70 for the second.

CCOC(=O)c1ccc(NC(=O)NCc2c[nH]nc2N)cc1 [Ethyl 4-(3-((3-amino-1H-pyrazol-4-yl)methyl)ureido)benzoate] was tested, and the pEC50 was less than 4.70.

same assay, conditions: Table B-2; NAMPT activation, NMN formation

O=C(NCc1ccncc1)Nc1ccc(S(=O)(=O)Nc2ccccc2Cl)cc1 [4-(3-pyridin-4-ylmethyl-ureido)-N-(2-chloro-phenyl)-benzenesulfonamide] and O=C(NCc1ccncc1)Nc1ccc(S(=O)(=O)Nc2cccc(Cl)c2)cc1 [4-(3-pyridin-4-ylmethyl-ureido)-N-(3-chloro-phenyl)-benzenesulfonamide] fall in the same range of pEC50: 5.70 to 7.00 for the first, 5.70 to 7.00 for the second.

First: O=C(NCc1ccncc1)Nc1ccc(S(=O)(=O)Nc2ccc(Cl)cc2)cc1 [4-(3-pyridin-4-ylmethyl-ureido)-N-(4-chloro-phenyl)-benzenesulfonamide]
Second: O=C(NCc1ccncc1)Nc1ccc(NS(=O)(=O)c2ccc(Cl)cc2)cc1 [4-Chloro-N-[4-(3-pyridin-4-ylmethyl-ureido)-phenyl]-benzenesulfonamide]
The pEC50 of the first is lower: 5.70 to 7.00 for the first, greater than 7.00 for the second. The second is the more potent here.

COc1ccc(S(=O)(=O)Nc2ccc(NC(=O)NCc3ccncc3)cc2)cc1 [4-Methoxy-N-[4-(3-pyridin-4-ylmethyl-ureido)-phenyl]-benzenesulfonamide] and COC(=O)c1ccc(CNS(=O)(=O)c2ccc(NC(=O)NCc3ccncc3)cc2)cc1 [4-{[4-(3-Pyridin-4-ylmethyl-ureido)-benzenesulfonylamino]-methyl}-benzoic acid methyl ester] fall in the same range of pEC50: 5.70 to 7.00 for the first, 5.70 to 7.00 for the second.

Compared with CCOC(=O)c1ccccc1NC(=O)NCc1ccncc1 [Ethyl 2-(3-(pyridin-4-ylmethyl)ureido)benzoate], CCOC(=O)c1cccc(NC(=O)NCc2ccncc2)c1 [Ethyl 3-(3-(pyridin-4-ylmethyl)ureido)benzoate] is higher in pEC50: less than 4.70 for the first, 4.70 to 5.30 for the second.

CCOC(=O)c1ccc(NC(=O)NCc2ccnc(N)c2)cc1 [Ethyl 4-(3-((2-aminopyridin-4-yl)methyl)ureido)benzoate] and CCOC(=O)c1ccc(NC(=O)NCc2ccnc(Cl)c2)cc1 [Ethyl 4-(3-((2-chloropyridin-4-yl)methyl)ureido)benzoate] cannot be ordered by pEC50: less than 4.70 for the first, less than 4.70 for the second.

CCOC(=O)c1ccc(NC(=O)NCc2ccnc(F)c2)cc1 [Ethyl 4-(3-((2-fluoropyridin-4-yl)methyl)ureido)benzoate] and CCOC(=O)c1ccc(NC(=O)NCc2ccnc(C)c2)cc1 [Ethyl 4-(3-((2-methylpyridin-4-yl)methyl)ureido)benzoate] cannot be ordered by pEC50: less than 4.70 for the first, less than 4.70 for the second.

CCOC(=O)c1ccc(NC(=O)NCc2ccnc(OC)c2)cc1 [Ethyl 4-(3-((2-methoxypyridin-4-yl)methyl)ureido)benzoate] and CCOC(=O)c1ccc(NC(=O)NCc2ccncc2C)cc1 [Ethyl 4-(3-((3-methylpyridin-4-yl)methyl)ureido)benzoate] cannot be ordered by pEC50: less than 4.70 for the first, less than 4.70 for the second.

CCOC(=O)c1ccc(NC(=O)NCc2ccncc2N)cc1 [Ethyl 4-(3-((3-aminopyridin-4-yl)methyl)ureido)benzoate] and CCOC(=O)c1ccc(NC(=O)NCc2ccncc2Cl)cc1 [Ethyl 4-(3-((3-chloropyridin-4-yl)methyl)ureido)benzoate] cannot be ordered by pEC50: less than 4.70 for the first, less than 4.70 for the second.

CCOC(=O)c1ccc(NC(=O)NCc2ccncc2F)cc1 [Ethyl 4-(3-((3-fluoropyridm-4-yl)methyl)ureido)benzoate] showed a pEC50 of 5.70 to 7.00.

same assay, conditions: Table B-3; NAMPT activation, NMN formation

First: NC(=O)c1ccc(NC(=O)NCc2ccncc2)cn1 [5-(3-(pyridin-4-ylmethyl)ureido)picolinamide]
Second: CCOC(=O)c1ccc(NC(=O)NCc2ccnnc2)cc1 [Ethyl 4-(3-(pyridazin-4-ylmethyl)ureido)benzoate]
The pEC50 of the first is higher: 5.30 to 5.70 for the first, less than 4.70 for the second.

CCOC(=O)c1ccc(NC(=O)NCC2CCNc3ccccc32)cc1 (stereo not shown) [Ethyl 4-(3-((1,2,3,4-tetrahydroquinolin-4-yl)methyl)ureido)benzoate] and CCOC(=O)c1ccc(NC(=O)NCc2ccccn2)cc1 [Ethyl 4-(3-(pyridin-2-ylmethyl)ureido)benzoate] cannot be ordered by pEC50: less than 4.70 for the first, less than 4.70 for the second.

CCOC(=O)c1ccc(NC(=O)NCc2ccncc2Cl)cc1 [Ethyl 4-(3-((3-chloropyridin-4-yl)methyl)ureido)benzoate] and CCOC(=O)c1ccc(NC(=O)NCc2cccnc2)cc1 [Ethyl 4-(3-(pyridin-3-ylmethyl)ureido)benzoate] cannot be ordered by pEC50: less than 4.70 for the first, less than 4.70 for the second.

same assay, conditions: Table B-4; NAMPT activation, NMN formation

O=C(NCc1cn[nH]c1)Nc1ccc(NS(=O)(=O)Cc2ccccc2Cl)cc1 [C-(2-Chloro-phenyl)-N-{4-[3-(1H-pyrazol-4-ylmethyl)-ureido]-phenyl}-methanesulfonamide] and O=C(NCc1cn[nH]c1)Nc1ccc(NS(=O)(=O)Cc2cccc(Cl)c2)cc1 [C-(3-Chloro-phenyl)-N-{4-[3-(1H-pyrazol-4-ylmethyl)-ureido]-phenyl}-methanesulfonamide] cannot be ordered by pEC50: greater than 7.00 for the first, greater than 7.00 for the second.

O=C(NCc1cn[nH]c1)Nc1ccc(NS(=O)(=O)Cc2ccc(Cl)c(Cl)c2)cc1 [C-(3,4-Dichloro-phenyl)-N-{4-[3-(1H-pyrazol-4-ylmethyl)-ureido]-phenyl}-methanesulfonamide] and O=C(NCc1cn[nH]c1)Nc1ccc(NS(=O)(=O)Cc2ccc(Cl)cc2)cc1 [C-(4-Chloro-phenyl)-N-{4-[3-(1H-pyrazol-4-ylmethyl)-ureido]-phenyl}-methanesulfonamide] cannot be ordered by pEC50: greater than 7.00 for the first, greater than 7.00 for the second.

same assay, conditions: Table B-6; NAMPT activation, NMN formation

O=C(NCc1ccncc1)Nc1ccc(NS(=O)(=O)Cc2ccccc2Br)cc1 [C-(2-Bromo-phenyl)-N-[4-(3-pyridin-4-ylmethyl-ureido)-phenyl]-methanesulfonamide] and O=C(NCc1ccncc1)Nc1ccc(NS(=O)(=O)Cc2ccccc2F)cc1 [C-(2-Fluoro-phenyl)-N-[4-(3-pyridin-4-ylmethyl-ureido)-phenyl]-methanesulfonamide] cannot be ordered by pEC50: greater than 7.00 for the first, greater than 7.00 for the second.

First: COc1ccccc1CS(=O)(=O)Nc1ccc(NC(=O)NCc2ccncc2)cc1 [C-(2-Methoxy-phenyl)-N-[4-(3-pyridin-4-ylmethyl-ureido)-phenyl]-methanesulfonamide]
Second: COc1cccc(CS(=O)(=O)Nc2ccc(NC(=O)NCc3ccncc3)cc2)c1 [C-(3-Methoxy-phenyl)-N-[4-(3-pyridin-4-ylmethyl-ureido)-phenyl]-methanesulfonamide]
The pEC50 of the first is lower: 5.70 to 7.00 for the first, greater than 7.00 for the second. The second is the more potent here.

O=C(NCc1ccncc1)Nc1ccc(NS(=O)(=O)Cc2cccc(F)c2)cc1 [C-(3-Fluoro-phenyl)-N-[4-(3-pyridin-4-ylmethyl-ureido)-phenyl]-methanesulfonamide] and O=C(NCc1ccncc1)Nc1ccc(NS(=O)(=O)Cc2ccc(Br)cc2)cc1 [C-(4-Bromo-phenyl)-N-[4-(3-pyridin-4-ylmethyl-ureido)-phenyl]-methanesulfonamide] cannot be ordered by pEC50: greater than 7.00 for the first, greater than 7.00 for the second.

First: N#Cc1ccc(CS(=O)(=O)Nc2ccc(NC(=O)NCc3ccncc3)cc2)cc1 [C-(4-Cyano-phenyl)-N-[4-(3-pyridin-4-ylmethyl-ureido)-phenyl]-methanesulfonamide]
Second: COc1ccc(CS(=O)(=O)Nc2ccc(NC(=O)NCc3ccncc3)cc2)cc1 [C-(4-Methoxy-phenyl)-N-[4-(3-pyridin-4-ylmethyl-ureido)-phenyl]-methanesulfonamide]
The pEC50 of the first is lower: 5.70 to 7.00 for the first, greater than 7.00 for the second.

O=C(NCc1ccncc1)Nc1ccc(NS(=O)(=O)Cc2ccc(C3CC3)cc2)cc1 [C-(4-Cyclopropyl-phenyl)-N-[4-(3-pyridin-4-ylmethyl-ureido)-phenyl]-methanesulfonamide] and O=C(NCc1ccncc1)Nc1ccc(NS(=O)(=O)Cc2ccc(-c3ccccc3)cc2)cc1 [C-Biphenyl-4-yl-N-[4-(3-pyridin-4-ylmethyl-ureido)-phenyl]-methanesulfonamide] cannot be ordered by pEC50: greater than 7.00 for the first, greater than 7.00 for the second.
